Earlier results on 13 compounds are cited in patent US20060116331A1, “Glycosylceramide analogues” (BIOMIRA, INC., priority 2002, published 2006).

Entries after “also recorded” stand apart in the source; their conditions may differ.

One data set relates to Vα14 NKT cells. Conditions: for CD1d-restricted, TCR-mediated activation of Vα14 NKT cells (ability to elicit natural killer cell activity): Kawano et al. (1997); for stimulation of Vα14 NKT cells: structure-activity relationship studies.
The test system of another data set is spleen cells. Conditions: Ijima et al. (1998).

3,4-deoxy α-GalCer: the “CD1d-restricted, TCR-mediated activation of Vα14 NKT cells (ability to elicit natural killer cell activity)” value (shortened to “CD1d-restricted, TCR-mediated activation”) with Vα14 NKT cells is on record as “active”.
Turning to `CCCCCCCCCCCCCCC[C@@H](O)[C@H](CO[C@H]1O[C@H](CO)[C@H](O)[C@H](O)[C@H]1O)NC(=O)CCCCCCCCCCCCC` [AGL-517], the “MLR activity (stimulation of spleen cell proliferation by pretreated DCs)” value in the data set with spleen cells was “active”.
Regarding `CCCCCCCCCCCCCCC[C@@H](O)[C@H](CO[C@H]1O[C@H](CO)[C@@H](O)[C@H](O)[C@H]1O)NC(=O)CCCCCCCCCCCCC` [AGL-563], the “MLR activity (stimulation of spleen cell proliferation by pretreated DCs)” value with spleen cells is listed as “reduced, but did not abolish, activity”.
On to `CCCCCCCCCCCCCCCCCCCCCCCC(=O)N[C@@H](CO[C@H]1O[C@H](CO)[C@H](O)[C@H](O)[C@H]1O)[C@H](O)[C@H](O)CCCCC` [OCH], for which, in the data set with NKT cells, the Th1/Th2 bias entry is given as “induces Th2 bias”.
For `CCCCCCCCCCCCCCCCCCCCCCCCCC(=O)N[C@@H](CO[C@H]1O[C@H](CO)[C@H](O)[C@H](O)[C@H]1O)[C@H](O)[C@H](O)CCCCCCCCCCCCCC` [α-GalCer, α-galactosylceramide], the “CD1d-restricted, TCR-mediated activation” value in the data set on Vα14 NKT cells is listed as “active; also recorded: most active”. Also, the Th1/Th2 bias entry in the data set on NKT cells was “unbiased”.
Regarding Galα1-2Galα1-1′Cer, the “CD1d-restricted, TCR-mediated activation” value in the data set with Vα14 NKT cells is reported as “active”.
As to Galα1-4Glcβ1-1′Cer, the “CD1d-restricted, TCR-mediated activation” value in the data set with Vα14 NKT cells is “inactive”.
For the compound Galα1-6Galα1-1′Cer, the “CD1d-restricted, TCR-mediated activation” value in the data set with Vα14 NKT cells is “active”.
Turning to Galα1-6Glcα1-1′Cer, the “CD1d-restricted, TCR-mediated activation” value in the data set with Vα14 NKT cells is given as “active”.
With Galβ1-3Galα1-1′Cer, the “CD1d-restricted, TCR-mediated activation” value in the data set with Vα14 NKT cells is given as “active”.
Consider ceramide, for which the “CD1d-restricted, TCR-mediated activation” value in the data set on Vα14 NKT cells was “inactive”.
For α-glucosylceramide [α-GlcCer], in the data set on Vα14 NKT cells, the “CD1d-restricted, TCR-mediated activation” value was “active” and the “stimulation of Vα14 NKT cells” value was “readily stimulate”.
For α-mannosylceramide [α-ManCer], in the data set with Vα14 NKT cells, the “CD1d-restricted, TCR-mediated activation” value is “inactive” and the “stimulation of Vα14 NKT cells” value is “failed to stimulate”.
